Results reported in PMC7037682, “Herb–Drug Interaction of Red Ginseng Extract and Ginsenoside Rc with Valsartan in Rats” (Molecules, 2020).
Read-outs that look alike come from different tables or passages of the source.

Columns and labels:
OCT2 = target: T1, OCT2 (Homo sapiens, UniProt O15244); assay: Inhibition of OCT2-mediated [3H]MPP+ uptake in HEK293-OCT2 cells
T1 sequence (O15244 1-555): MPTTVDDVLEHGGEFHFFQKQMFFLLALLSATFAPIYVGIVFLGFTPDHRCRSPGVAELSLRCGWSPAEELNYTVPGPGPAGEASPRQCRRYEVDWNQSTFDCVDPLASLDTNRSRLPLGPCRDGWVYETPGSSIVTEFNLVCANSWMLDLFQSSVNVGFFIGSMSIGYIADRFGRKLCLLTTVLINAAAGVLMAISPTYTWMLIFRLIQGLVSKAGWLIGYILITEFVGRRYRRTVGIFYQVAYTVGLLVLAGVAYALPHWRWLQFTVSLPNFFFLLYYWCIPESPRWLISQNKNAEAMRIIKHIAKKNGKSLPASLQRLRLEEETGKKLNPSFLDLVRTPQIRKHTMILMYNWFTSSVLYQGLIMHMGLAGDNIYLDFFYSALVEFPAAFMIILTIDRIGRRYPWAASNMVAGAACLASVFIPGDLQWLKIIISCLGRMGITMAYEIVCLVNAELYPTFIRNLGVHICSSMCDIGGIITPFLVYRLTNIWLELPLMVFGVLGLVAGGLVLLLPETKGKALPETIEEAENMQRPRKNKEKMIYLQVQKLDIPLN
Procedure: (§1) HEK293 cells overexpressing the OCT1, OCT2, OAT1, OAT3, OATP1B1, and OATP1B3 transporters (HEK293-OCT1, -OCT2, -OAT1, -OAT3, -OATP1B1, and -OATP1B3, respectively) and HEK293-mock cells (Corning Life Sciences; Woburn, MA, USA) were used and characterized as previously described.
(§2) HEK293 cells overexpressing drug transporters and HEK293-mock cells were seeded in poly-D-lysine-coated 96-well plates at a density of 10^5 cells/well and were cultured in DMEM supplemented with 10% FBS, 5 mM non-essential amino acids, and 2 mM sodium butyrate in a humidified atmosphere with 8% CO2 at 37 °C.
To examine the effects of ginsenosides and typical inhibitors on transporter activity, aliquots (100 μL) of HBSS containing the probe substrate and ginsenosides or typical inhibitors were added to the cells after aspirating pre-incubated HBSS. The concentrations and probe substrates were as follows: 0.1 μM [^3H]MPP^+ for OCT1 and OCT2, 0.1 μM [^3H]PAH for OAT1, 0.1 μM [^3H]ES for OAT3 and OATP1B1, and 0.1 μM [^3H]EG for OATP1B3. […] Then the uptake of probe substrates into HEK293-mock cells and HEK293-OCT1, -OCT2, -OAT1, -OAT3, -OATP1B1, and -OATP1B3 cells in the presence and absence of typical inhibitor or each ginsenoside with previously described concentration range was measured for 5 min. Immediately after placing the plates on ice, the cells were washed three times with 100 μL of ice-cold HBSS, followed by lysing with 50 μL of 10% SDS solution and mixing with 150 μL of Optiphase cocktail solution (Perkin Elmer Inc., Boston, MA, USA). The radioactivity of the probe substrates in the cells was determined using a liquid scintillation counter.
(§3) In the inhibition studies, the uptake rate of substrate by HEK293 cells overexpressing the respective transporters was used as the control (100%) and the uptake rate of substrates in the presence of typical inhibitors or ginsenosides expressed as a percentage of the control. The inhibition data were fitted to an inhibitory effect model using Sigma plot (version 10.0; Systat Software Inc., San Jose, CA, USA). IC50 value indicated the half-maximal inhibitory concentration of the inhibitor.

[1] = Plasma pharmacokinetics of ginsenosides in rats after 1-week repeated RGE; conditions: for detection in rat plasma: LC-MS/MS, after RGE 1.5 g/kg/day po for 1 week
Procedure: The rats were randomly divided into the control and RGE groups. The RGE group received a RGE suspension (1.5 g/mL/kg/day, in distilled water) for 7 days via oral gavage. The control group received distilled water for 7 days via oral gavage. After 1 h following the last RGE treatment, valsartan was injected intravenously to both groups via the tail vein at 1 mg/mL/kg (dissolved in DMSO: saline = 2:8, v/v). […] After centrifugation of the blood samples at 16,000× g for 10 min, aliquots (50 μL each) of plasma samples were stored at −80 °C until the analysis of ginsenosides and valsartan.
The residue was reconstituted with 100 μL of 70% methanol consisting of 0.1% formic acid. An aliquot (20 μL) from the sample was injected into the LC-MS/MS system.
After freezing the aqueous layer at −80 °C for 2 h, the upper organic layer was transferred to a clean tube and evaporated to dryness. […] An aliquot (20 μL) from the sample was injected into the LC-MS/MS system. The samples were eluted through an Omega Polar C18 column (2.1 mm × 100 mm, 3 µm particle size) (Phenomenex, Torrance, CA, USA) using a mobile phase consisting of 0.1% formic acid in water: 0.1% formic acid in methanol (15:85, v/v) at a flow rate of 0.2 mL/min.
Pharmacokinetic parameters were calculated from plasma concentration-time profile using non-compartment analysis of WinNonlin (version 5.1; Pharsights, Cary, NC, USA). The statistical significance was assessed by t-test using Statistical Package for the Social Sciences (version 24.0; SPSS Inc., Chicago, IL, USA).

OAT1 = target: T2, OAT1 (Homo sapiens, UniProt Q4U2R8); assay: Inhibition of OAT1-mediated [3H]PAH uptake in HEK293-OAT1 cells
T2 sequence (Q4U2R8 1-563): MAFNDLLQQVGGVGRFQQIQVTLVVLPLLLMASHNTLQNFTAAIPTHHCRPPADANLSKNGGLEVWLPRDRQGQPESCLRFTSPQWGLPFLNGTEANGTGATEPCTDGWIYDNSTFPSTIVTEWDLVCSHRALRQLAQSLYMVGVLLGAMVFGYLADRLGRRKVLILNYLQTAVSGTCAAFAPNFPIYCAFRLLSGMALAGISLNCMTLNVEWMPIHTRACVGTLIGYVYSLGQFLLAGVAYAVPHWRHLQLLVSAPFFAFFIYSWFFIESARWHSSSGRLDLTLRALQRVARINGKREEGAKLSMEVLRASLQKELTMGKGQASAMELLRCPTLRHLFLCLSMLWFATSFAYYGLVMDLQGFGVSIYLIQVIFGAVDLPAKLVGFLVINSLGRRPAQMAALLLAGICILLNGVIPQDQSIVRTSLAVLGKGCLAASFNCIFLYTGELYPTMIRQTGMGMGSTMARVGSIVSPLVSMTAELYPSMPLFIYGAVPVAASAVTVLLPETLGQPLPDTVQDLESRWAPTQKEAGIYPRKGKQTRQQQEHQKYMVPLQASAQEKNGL
Procedure: as §1, §2
Then the uptake of probe substrates into HEK293-mock cells and HEK293-OCT1, -OCT2, -OAT1, -OAT3, -OATP1B1, and -OATP1B3 cells in the presence and absence of typical inhibitor or each ginsenoside with previously described concentration range was measured for 5 min. Immediately after placing the plates on ice, the cells were washed three times with 100 μL of ice-cold HBSS, followed by lysing with 50 μL of 10% SDS solution and mixing with 150 μL of Optiphase cocktail solution (Perkin Elmer Inc., Boston, MA, USA). The radioactivity of the probe substrates in the cells was determined using a liquid scintillation counter.
as §3

Compound | maximum plasma concentration (molar) ([1]; rat plasma, after RGE 1.5 g/kg/day po for 7 days) [nM] | AUC ([1]; rat, plasma, po, 1.5 g/kg/day) [ng·h/mL] | Cmax ([1]; rat, plasma, po, 1.5 g/kg/day) [ng/mL] | MRT ([1]; rat, plasma, po, 1.5 g/kg/day) [h] | Tmax ([1]; rat, plasma, po, 1.5 g/kg/day) [h] | half-life ([1]; rat, plasma, po, 1.5 g/kg/day) [h] | IC50 (OCT2; read-out: IC50 OCT2, HEK293-OCT2, 0.1 μM [3H]MPP+ uptake, 5 min) [µM] | IC50 (OAT1; read-out: IC50 OAT1, HEK293-OAT1, 0.1 μM [3H]PAH uptake, 5 min) [µM] | IC50 (OCT2) [µM] | IC50 (OAT1) [µM] | detection in rat plasma [1]
CC(C)=CCC[C@](C)(O)[C@H]1CC[C@]2(C)[C@@H]1[C@H](O)C[C@@H]1[C@@]3(C)CC[C@H](O[C@@H]4O[C@H](CO)[C@@H](O)[C@H](O)[C@H]4O)C(C)(C)[C@@H]3CC[C@]12C [Rh2, ginsenoside Rh2] |  |  |  |  |  |  |  |  | > 100 | > 100 | not detected
CC(C)=CCC[C@](C)(O[C@@H]1O[C@H](CO)[C@@H](O)[C@H](O)[C@H]1O)[C@H]1CC[C@]2(C)[C@@H]1[C@H](O)C[C@@H]1[C@@]3(C)CC[C@H](O)C(C)(C)[C@@H]3[C@@H](O[C@@H]3O[C@H](CO)[C@@H](O)[C@H](O)[C@H]3O)C[C@]12C [Rg1, ginsenoside Rg1] |  |  |  |  |  |  |  |  | > 100 | > 100 | not detected
CC(C)=CCC[C@](C)(O)[C@H]1CC[C@]2(C)[C@@H]1[C@H](O)C[C@@H]1[C@@]3(C)CC[C@H](O)C(C)(C)[C@@H]3[C@@H](O[C@@H]3O[C@H](CO)[C@@H](O)[C@H](O)[C@H]3O)C[C@]12C [Rh1, ginsenoside Rh1] |  |  |  |  |  |  |  |  | > 100 | > 100 | not detected

Continued, in another order:

maximum plasma concentration (molar) ([1]; rat plasma, after RGE 1.5 g/kg/day po for 7 days) [nM] | AUC ([1]; rat, plasma, po, 1.5 g/kg/day) [ng·h/mL] | Cmax ([1]; rat, plasma, po, 1.5 g/kg/day) [ng/mL] | MRT ([1]; rat, plasma, po, 1.5 g/kg/day) [h] | Tmax ([1]; rat, plasma, po, 1.5 g/kg/day) [h] | half-life ([1]; rat, plasma, po, 1.5 g/kg/day) [h] | IC50 (OCT2; read-out: IC50 OCT2, HEK293-OCT2, 0.1 μM [3H]MPP+ uptake, 5 min) [µM] | IC50 (OAT1; read-out: IC50 OAT1, HEK293-OAT1, 0.1 μM [3H]PAH uptake, 5 min) [µM] | Compound | IC50 (OCT2) [µM] | IC50 (OAT1) [µM] | detection in rat plasma [1]
5.3 | 164 ± 39.1 | 5.1 ± 0.74 | 20.8 ± 1.68 | 2.17 ± 1.76 | 43.5 ± 17.5 |  |  | CC(C)=CCC[C@](C)(O[C@@H]1O[C@H](CO)[C@@H](O)[C@H](O)[C@H]1O)[C@H]1CC[C@]2(C)[C@@H]1[C@H](O)C[C@@H]1[C@@]3(C)CC[C@H](O[C@@H]4O[C@H](CO)[C@@H](O)[C@H](O)[C@H]4O[C@@H]4O[C@H](CO)[C@@H](O)[C@H](O)[C@H]4O)C(C)(C)[C@@H]3CC[C@]12C [Rd, ginsenoside Rd] | > 100 | > 100 | 
 |  |  |  |  |  | > 100 | > 100 | CC(C)=CCC[C@](C)(O[C@@H]1O[C@H](CO)[C@@H](O)[C@H](O)[C@H]1O)[C@H]1CC[C@]2(C)[C@@H]1[C@H](O)C[C@@H]1[C@@]3(C)CC[C@H](O)C(C)(C)[C@@H]3CC[C@]12C [Compound K, compound K] |  |  | not detected
